Laboratory results as given in patent US12115147B2, “Formulations and methods related to eye irritation” (Lebrun Labs LLC, priority 2020, dated 2024).

Tests used:
[1] = pH 6.36
[2] = system: reconstituted human corneal epithelium; assay: Modified EPIOCULAR test with or without ascorbic acid overlay, MTT viability
Procedure: To include the antioxidant mixture in cell-based assays, the mix can be added to the medium or the test sample. Per the EPIOCULAR protocol by MatTek Corporation, the EpiOcular Assay Medium should be warmed to approximately 37° C. […] The standard operating procedures are listed as follows:
Tissue Preincubation • 1) RhCE tissues (purchased from MatTek Corporation) are equilibrated for about 15 min. • 2) The antioxidant is added to the Assay Medium and used for all steps that follow and/or the antioxidant is added to the test chemical or overlayed over the tissue prior to test chemical exposure. […] The tissues were then incubated at standard culture conditions for 30±2 min. • 3) Antioxidant procedure: The test article used was Styrene (CASRN 100-42-5, Lot No. MKCM4502). […] Modifications Required for Solids • 1) Each solid is tested by applying one leveled volumetric spoonful of material to be tested into tissue insert (approximately 50 mg). and incubated for 6 hours. • 2) Rinsing: At the end of the 6 hours, the test articles are removed by rinsing (as above). • 3) Post-treatment: After rinsing, the tissue inserts are immersed in 5 mL of previously warmed Assay Medium • 4) Recovery: Next, each insert is removed from the Assay Medium, and transferred to a plate containing 1 mL of Medium. The tissues are then incubated for 18 hours under cell culture. Cell Viability Test • 1) After the post-treatment incubation, the MTT viability test is done. • 2) A 1.0 mg/mL MTT solution is prepared and 300 μL of the MTT solution is added to each well of a 24-well plate. each insert is removed from the 6-well plate and placed into the 24-well plate containing 0.3 mL of MTT solution. The plate is then incubated for 3 hours under culture conditions. • 3) After incubation, each insert is removed from the 24-well plate and then transferred to a 24-well plate containing 2.0 mL of isopropanol. […] Alternative Visual Determination of Viability and Irritant Prediction • 1) Since viable cells turn MTT purple, the relative viability of one tissue to the next can be determined by a visual inspection. […]

[3] = OPTISAFE in vitro ocular irritation test, original formulation without antioxidants; details: triplicate assays; for OPTISAFE (no antioxidant) Score AVG: ROS/CL chemicals
Procedure: Surfactants were diluted.
Next a study was conducted to determine if the addition of antioxidants changes the reliability (repeatability) of the test method. After this, a large study determined if antioxidants specifically reduce the false positive rate without impacting the true positive rate and the true negative rate and then all prior test chemicals were rested with antioxidants in triplicate.

[4] = Table 7B; consensus of past application domain study, no antioxidants; predicted GHS class; cited from earlier work
[5] = OS2 (OPTISAFE2), OPTISAFE formulation with antioxidants

| Structure (SMILES) | OS2 (with antioxidant) Score AVG [1] | prediction, Condition 2 ([2]; ascorbic acid (0.3 mg/ml) in PBS overlay and culture medium) | cell killing, Condition 2 ([2]; ascorbic acid (0.3 mg/ml) in PBS overlay and culture medium, MTT, visual) | cell killing, Condition 1 ([2]; no ascorbic acid added, 50 μL, 30 min exposure, MTT, visual) | OPTISAFE (no antioxidant) Score AVG [3] | OS2 score average [1] | OS2 scores ranged from [1] | Score = Average score [1] | OS Cons [4] | OS2 Cons ([5]; Table 7B, majority prediction of the triplicate assays) | OS2 R1 ([5]; Table 7B, repeat 1, with antioxidants, predicted GHS class) | OS2 R3 ([5]; Table 7B, repeat 3, with antioxidants, predicted GHS class) | OS2 Score AVG ([5]; new formulation with antioxidants at the in vivo concentration, triplicate assays) | OPTISAFE Score AVG ([3]; original formulation without antioxidants) |
| --- | --- | --- | --- | --- | --- | --- | --- | --- | --- | --- | --- | --- | --- | --- |
| C=Cc1ccccc1 [Styrene] | 3.5 ± 0.8 | nonirritant (TN) | significantly less cell killing | extensive cell killing | 53.5 ± 10.1 | – | – | – | – | – | – | – | – | – |
| OCCOCCOCCO [Triethylene glycol] | 5.1 ± 1.7 | – | – | – | 13.2 ± 3.5 | 3.1 | 2.1-4.2 | 3.1 | 2 | – | – | – | – | – |
| CCOCCOCCO [2-(2-Ethoxyethoxy)ethanol] | 12.0 ± 0.3 | – | – | – | 21.7 ± 0.3 | – | – | – | 2 | – | – | – | – | – |
| c1ccc(OP(Oc2ccccc2)Oc2ccccc2)cc1 [Triphenyl phosphite] | – | – | – | – | – | – | – | – | 1 | 1 | 1 | 1 | 169.0 ± 9.9 | 113.3 ± 2.1 |
